Laboratory results from patent US6989162B2, “Hepatoprotective agent of plant origin and a process thereof” (Council of Scientific & Industrial Research, priority 2003, dated 2006).
“And” between values parts separate entries of the source, which are not always exact repeats. Equal values may be shown once.

Experiments:
[1] = tested on: CCl4 induced hepatic injury; experiment: Hepatoprotective potential against CCl4 induced hepatic injury in rodents (prophylactic); assay type: in vivo, Rodents (Albino rats, Wistar; Albino mice, Swiss); details: for % protection, GSH / % protection, LP / GSH (glutathione) / LP (lipid peroxidation): hepatic; for GSH (glutathione) / LP (lipid peroxidation) / ALP / Albumin / Bilirubin / GOT / GPT / TG: mean ± SE, six animals; for % protection, ALP / % protection, Albumin / % protection, Bilirubin / % protection, GOT / % protection, GPT / % protection, TG / ALP / Albumin / Bilirubin / GOT / GPT / TG: serum
Text: The compound has been bioevaluated for hepatoprotective/antihepatotoxic activity by using a comprehensive study design annexed herewith as Annexure-2. The parameters studied during the bioevaluation to establish the bioefficacy and optimum dose were preferred using the kits (Clonital, Italy and Accurex Biomedical Pvt. Ltd Thane). The list of the parameters is given in Annexure-2 appended herewith. The dose response graphs with respect to different parameters in comparison with the standard drug with silymarin and glycyrrhizin are given in Annexure-3 appended herewith.
Hepatoprotective activity (H) was calculated by the following equation: H=[1−(TC−V/VC−V)]×100
Where TC, VC, and V are drug+toxin, vehicle+toxin and vehicle treated groups of animals respectively.

[2] = Acteoside only (per-se), serum and hepatic parameters without toxin; assay type: in vivo, Rodents; details: 5 mg/kg, mean ± SE, six animals
[3] = tested on: isolated rat colon; experiment: Histamine, 5-HT and Acetylcholine induced contraction on the isolated rat colon
[4] = Effect on BP and respiration, I.V. in rat; assay type: in vivo; details: 30 μg, 100 μg, 300 μg and 1 mg I.V. in rat

CC1(C)[C@@H](O[C@H]2O[C@H](C(=O)O)[C@@H](O)[C@H](O)[C@H]2O[C@@H]2O[C@H](C(=O)O)[C@@H](O)[C@H](O)[C@H]2O)CC[C@]2(C)[C@H]3C(=O)C=C4[C@@H]5C[C@@](C)(C(=O)O)CC[C@]5(C)CC[C@@]4(C)[C@]3(C)CC[C@@H]12 [Glycyrrhizin, reference compound]
% protection, GSH ([1]; 100 mg/kg p.o. + CCl4): (53.55) %
% protection, LP ([1]; 100 mg/kg p.o. + CCl4): (56.08) %
GSH (glutathione) ([1]; 100 mg/kg p.o. + CCl4): 5.96 ± 0.26 μ mole GSH/g liver
LP (lipid peroxidation) ([1]; 100 mg/kg p.o. + CCl4): 54.37 ± 4.82 n mole MDA/g liver
% protection, ALP ([1]; 100 mg/kg p.o. + CCl4): (46.48) %
% protection, Albumin ([1]; 100 mg/kg p.o. + CCl4): (38.57) %
% protection, Bilirubin ([1]; 100 mg/kg p.o. + CCl4): (42.85) %
% protection, GOT ([1]; 100 mg/kg p.o. + CCl4): (56.44) %
% protection, GPT ([1]; 100 mg/kg p.o. + CCl4): (53.87) %
% protection, TG ([1]; 100 mg/kg p.o. + CCl4): (42.07) %
ALP ([1]; 100 mg/kg p.o. + CCl4): 55.63 ± 3.52 μ mole of p-nitrophenol formed/min/L
Albumin ([1]; 100 mg/kg p.o. + CCl4): 3.30 ± 0.12 g %
Bilirubin ([1]; 100 mg/kg p.o. + CCl4): 0.55 ± 0.04 mg %
GOT ([1]; 100 mg/kg p.o. + CCl4): 494.27 ± 36.28 Units (μ mole pyruvate/min/L)
GPT ([1]; 100 mg/kg p.o. + CCl4): 746.87 ± 49.77 Units (μ mole pyruvate/min/L)
TG ([1]; 100 mg/kg p.o. + CCl4): 65.31 ± 3.69 mg %

C[C@@H]1O[C@@H](O[C@@H]2[C@@H](O)[C@H](OCCc3ccc(O)c(O)c3)O[C@H](CO)[C@H]2OC(=O)/C=C/c2ccc(O)c(O)c2)[C@H](O)[C@H](O)[C@H]1O [Acteoside, β-(3′,4′-dihydroxyphenyl) ethyl —O-α-L-rhamnopyranosyl (1→3)-β-D-(4-O-caffeoyl)-glucopyranoside]
GSH (glutathione) ([2]; no CCl4, hepatic): 8.33 ± 0.33 μ mole GSH/g liver
LP (lipid peroxidation) ([2]; no CCl4, hepatic): 30.52 ± 1.38 n mole MDA/g liver
ALP ([2]; no CCl4, serum): 31.87 ± 2.15 μ mole of p-nitrophenol formed/min/L
Albumin ([2]; no CCl4, serum): 4.66 ± 0.18 g %
Bilirubin ([2]; no CCl4, serum): 0.27 ± 0.02 mg %
GOT ([2]; no CCl4, serum): 94.71 ± 5.29 Units (μ mole pyruvate/min/L)
GPT ([2]; no CCl4, serum): 98.91 ± 5.30 Units (μ mole pyruvate/min/L)
TG ([2]; no CCl4, serum): 31.10 ± 2.39 mg %
% protection, GSH ([1]; 0.625 mg/kg p.o. + CCl4): (27.86) %
% protection, LP ([1]; 0.625 mg/kg p.o. + CCl4): (43.53) %
GSH (glutathione) ([1]; 0.625 mg/kg p.o. + CCl4): 4.66 ± 0.28 μ mole GSH/g liver
LP (lipid peroxidation) ([1]; 0.625 mg/kg p.o. + CCl4): 61.08 ± 3.39 n mole MDA/g liver
% protection, ALP ([1]; 0.625 mg/kg p.o. + CCl4): (21.48) %
% protection, Albumin ([1]; 0.625 mg/kg p.o. + CCl4): (21.43) %
% protection, Bilirubin ([1]; 0.625 mg/kg p.o. + CCl4): (12.24) %
% protection, GOT ([1]; 0.625 mg/kg p.o. + CCl4): (36.64) %
% protection, GPT ([1]; 0.625 mg/kg p.o. + CCl4): (39.44) %
% protection, TG ([1]; 0.625 mg/kg p.o. + CCl4): (17.63) %
ALP ([1]; 0.625 mg/kg p.o. + CCl4): 66.80 ± 3.53 μ mole of p-nitrophenol formed/min/L
Albumin ([1]; 0.625 mg/kg p.o. + CCl4): 3.06 ± 0.07 g %
Bilirubin ([1]; 0.625 mg/kg p.o. + CCl4): 0.70 ± 0.03 mg %
GOT ([1]; 0.625 mg/kg p.o. + CCl4): 673.82 ± 56.28 Units (μ mole pyruvate/min/L)
GPT ([1]; 0.625 mg/kg p.o. + CCl4): 852.27 ± 47.93 Units (μ mole pyruvate/min/L)
TG ([1]; 0.625 mg/kg p.o. + CCl4): 80.15 ± 3.53 mg %
overall percent protection with reference to all the parameters studied ([1]; 1.25 mg upto 5 mg/kg, CCl4): 40-85% and 40-80%
% protection, GSH ([1]; 1.25 mg/kg p.o. + CCl4): (52.96) %
% protection, LP ([1]; 1.25 mg/kg p.o. + CCl4): (59.38) %
GSH (glutathione) ([1]; 1.25 mg/kg p.o. + CCl4): 5.93 ± 0.32 μ mole GSH/g liver
LP (lipid peroxidation) ([1]; 1.25 mg/kg p.o. + CCl4): 52.61 ± 2.25 n mole MDA/g liver
% protection, ALP ([1]; 1.25 mg/kg p.o. + CCl4): (38.72) %
% protection, Albumin ([1]; 1.25 mg/kg p.o. + CCl4): (35.00) %
% protection, Bilirubin ([1]; 1.25 mg/kg p.o. + CCl4): (34.69) %
% protection, GOT ([1]; 1.25 mg/kg p.o. + CCl4): (55.43) %
% protection, GPT ([1]; 1.25 mg/kg p.o. + CCl4): (51.01) %
% protection, TG ([1]; 1.25 mg/kg p.o. + CCl4): (27.13) %
ALP ([1]; 1.25 mg/kg p.o. + CCl4): 59.10 ± 3.09 μ mole of p-nitrophenol formed/min/L
Albumin ([1]; 1.25 mg/kg p.o. + CCl4): 3.25 ± 0.14 g %
Bilirubin ([1]; 1.25 mg/kg p.o. + CCl4): 0.59 ± 0.03 mg %
GOT ([1]; 1.25 mg/kg p.o. + CCl4): 503.42 ± 48.95 Units (μ mole pyruvate/min/L)
GPT ([1]; 1.25 mg/kg p.o. + CCl4): 787.56 ± 57.49 Units (μ mole pyruvate/min/L)
TG ([1]; 1.25 mg/kg p.o. + CCl4): 74.38 ± 3.78 mg %
% protection, GSH ([1]; 2.5 mg/kg p.o. + CCl4): (68.57) %
% protection, LP ([1]; 2.5 mg/kg p.o. + CCl4): (72.76) %
GSH (glutathione) ([1]; 2.5 mg/kg p.o. + CCl4): 6.72 ± 0.28 μ mole GSH/g liver
LP (lipid peroxidation) ([1]; 2.5 mg/kg p.o. + CCl4): 45.46 ± 2.79 n mole MDA/g liver
% protection, ALP ([1]; 2.5 mg/kg p.o. + CCl4): (56.40) %
% protection, Albumin ([1]; 2.5 mg/kg p.o. + CCl4): (56.43) %
% protection, Bilirubin ([1]; 2.5 mg/kg p.o. + CCl4): (53.06) %
% protection, GOT ([1]; 2.5 mg/kg p.o. + CCl4): (58.92) %
% protection, GPT ([1]; 2.5 mg/kg p.o. + CCl4): (59.79) %
% protection, TG ([1]; 2.5 mg/kg p.o. + CCl4): (51.06) %
ALP ([1]; 2.5 mg/kg p.o. + CCl4): 51.20 ± 1.42 μ mole of p-nitrophenol formed/min/L
Albumin ([1]; 2.5 mg/kg p.o. + CCl4): 3.55 ± 0.22 g %
Bilirubin ([1]; 2.5 mg/kg p.o. + CCl4): 0.50 ± 0.03 mg %
GOT ([1]; 2.5 mg/kg p.o. + CCl4): 471.81 ± 26.40 Units (μ mole pyruvate/min/L)
GPT ([1]; 2.5 mg/kg p.o. + CCl4): 662.62 ± 39.80 Units (μ mole pyruvate/min/L)
TG ([1]; 2.5 mg/kg p.o. + CCl4): 59.85 ± 1.88 mg %
% protection, GSH ([1]; 5.0 mg/kg p.o. + CCl4): (74.50) %
% protection, LP ([1]; 5.0 mg/kg p.o. + CCl4): (75.07) %
GSH (glutathione) ([1]; 5.0 mg/kg p.o. + CCl4): 7.02 ± 0.46 μ mole GSH/g liver
LP (lipid peroxidation) ([1]; 5.0 mg/kg p.o. + CCl4): 44.22 ± 1.66 n mole MDA/g liver
% protection, ALP ([1]; 5.0 mg/kg p.o. + CCl4): (67.21) %
% protection, Albumin ([1]; 5.0 mg/kg p.o. + CCl4): (82.14) %
% protection, Bilirubin ([1]; 5.0 mg/kg p.o. + CCl4): (69.38) %
% protection, GOT ([1]; 5.0 mg/kg p.o. + CCl4): (70.49) %
% protection, GPT ([1]; 5.0 mg/kg p.o. + CCl4): (66.08) %
% protection, TG ([1]; 5.0 mg/kg p.o. + CCl4): (68.42) %
ALP ([1]; 5.0 mg/kg p.o. + CCl4): 46.37 ± 1.89 μ mole of p-nitrophenol formed/min/L
Albumin ([1]; 5.0 mg/kg p.o. + CCl4): 3.91 ± 0.12 g %
Bilirubin ([1]; 5.0 mg/kg p.o. + CCl4): 0.42 ± 0.02 mg %
GOT ([1]; 5.0 mg/kg p.o. + CCl4): 366.89 ± 26.97 Units (μ mole pyruvate/min/L)
GPT ([1]; 5.0 mg/kg p.o. + CCl4): 573.10 ± 28.25 Units (μ mole pyruvate/min/L)
TG ([1]; 5.0 mg/kg p.o. + CCl4): 49.31 ± 1.47 mg %
overall protection compared with silymarin ([1]; silymarin at 10-20 times the dosage of acteoside): better than that rendered by silymarin
effect on 5-HT induced contraction [3]: O: There is no change in the base line against the Histamine, 5-HT and Acetylcholine induced contraction on the isolated rat colon.
effect on Acetylcholine induced contraction [3]: O: There is no change in the base line against the Histamine, 5-HT and Acetylcholine induced contraction on the isolated rat colon.
effect on Histamine induced contraction [3]: O: There is no change in the base line against the Histamine, 5-HT and Acetylcholine induced contraction on the isolated rat colon.
effect on BP [4]: O: There is no effect on BP and Respiration in the doses of 30 μg, 100 μg, 300 μg and 1 mg I.V. in rat as there is no change in base line.
effect on Respiration [4]: O: There is no effect on BP and Respiration in the doses of 30 μg, 100 μg, 300 μg and 1 mg I.V. in rat as there is no change in base line.
